Measurements taken from ChEMBL document CHEMBL5291721, “A preclinical secondary pharmacology resource illuminates target-adverse drug reaction associations of marketed drugs” (Nat Commun, 2023).

Legend:
[1] = target: Gamma-aminobutyric acid receptor subunit alpha-1/alpha-2/beta-2/gamma-2 (Homo sapiens, UniProt P14867+P18507+P47869+P47870); type: protein-complex assay
[2] = target: Gamma-aminobutyric acid receptor subunit alpha-1 (Rattus norvegicus, UniProt P62813)
[3] = target: Sodium-dependent serotonin transporter (Homo sapiens, UniProt P31645)
Sequence of Sodium-dependent serotonin transporter (P31645 whole entry): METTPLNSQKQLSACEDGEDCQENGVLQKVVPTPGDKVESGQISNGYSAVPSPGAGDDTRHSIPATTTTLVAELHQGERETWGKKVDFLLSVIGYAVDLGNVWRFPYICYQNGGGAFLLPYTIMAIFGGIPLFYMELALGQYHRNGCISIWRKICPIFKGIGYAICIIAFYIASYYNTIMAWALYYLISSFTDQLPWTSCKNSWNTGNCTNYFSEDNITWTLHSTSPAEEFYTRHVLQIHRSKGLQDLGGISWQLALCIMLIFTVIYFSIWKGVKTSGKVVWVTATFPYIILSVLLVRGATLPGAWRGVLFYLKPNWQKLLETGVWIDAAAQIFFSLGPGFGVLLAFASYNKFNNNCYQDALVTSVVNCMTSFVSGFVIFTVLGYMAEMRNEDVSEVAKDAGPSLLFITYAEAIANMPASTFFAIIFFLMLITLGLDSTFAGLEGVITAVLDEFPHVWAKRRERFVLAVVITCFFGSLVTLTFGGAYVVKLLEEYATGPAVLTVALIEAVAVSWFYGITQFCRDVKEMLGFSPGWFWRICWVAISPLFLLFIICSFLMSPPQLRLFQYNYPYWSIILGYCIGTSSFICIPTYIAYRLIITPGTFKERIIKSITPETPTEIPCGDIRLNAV

Progesterone receptor = target: T1, Progesterone receptor (Homo sapiens, UniProt P06401)
T1 sequence (P06401 whole entry): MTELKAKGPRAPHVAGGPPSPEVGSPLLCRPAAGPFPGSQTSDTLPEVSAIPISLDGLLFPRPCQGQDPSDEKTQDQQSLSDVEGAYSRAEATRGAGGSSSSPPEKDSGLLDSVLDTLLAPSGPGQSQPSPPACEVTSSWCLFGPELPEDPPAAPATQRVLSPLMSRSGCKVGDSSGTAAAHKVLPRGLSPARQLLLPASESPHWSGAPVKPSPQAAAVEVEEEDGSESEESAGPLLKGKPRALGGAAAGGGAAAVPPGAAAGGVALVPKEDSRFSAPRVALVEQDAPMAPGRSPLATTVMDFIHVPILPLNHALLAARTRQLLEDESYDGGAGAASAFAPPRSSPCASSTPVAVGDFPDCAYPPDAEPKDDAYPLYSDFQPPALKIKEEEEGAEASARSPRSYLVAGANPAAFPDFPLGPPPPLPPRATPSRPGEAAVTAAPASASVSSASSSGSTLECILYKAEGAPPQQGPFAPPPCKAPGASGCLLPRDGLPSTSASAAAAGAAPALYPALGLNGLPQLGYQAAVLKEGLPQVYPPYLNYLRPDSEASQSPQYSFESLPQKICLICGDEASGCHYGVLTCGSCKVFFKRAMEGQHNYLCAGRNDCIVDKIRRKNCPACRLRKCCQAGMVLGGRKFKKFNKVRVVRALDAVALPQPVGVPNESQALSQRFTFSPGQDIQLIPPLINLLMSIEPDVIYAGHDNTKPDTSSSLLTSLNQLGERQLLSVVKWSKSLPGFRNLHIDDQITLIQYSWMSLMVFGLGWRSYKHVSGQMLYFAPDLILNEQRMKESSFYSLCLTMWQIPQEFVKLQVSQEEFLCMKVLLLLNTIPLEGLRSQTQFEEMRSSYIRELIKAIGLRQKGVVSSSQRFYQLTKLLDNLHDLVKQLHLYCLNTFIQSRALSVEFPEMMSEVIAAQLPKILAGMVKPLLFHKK

[4] = target: Voltage-dependent N-type calcium channel subunit alpha-1B (Rattus norvegicus, UniProt Q02294); type: functional
Further: assay procedure not described here.

Sequence of Gamma-aminobutyric acid receptor subunit alpha-1/alpha-2/beta-2/gamma-2 (P14867 whole entry): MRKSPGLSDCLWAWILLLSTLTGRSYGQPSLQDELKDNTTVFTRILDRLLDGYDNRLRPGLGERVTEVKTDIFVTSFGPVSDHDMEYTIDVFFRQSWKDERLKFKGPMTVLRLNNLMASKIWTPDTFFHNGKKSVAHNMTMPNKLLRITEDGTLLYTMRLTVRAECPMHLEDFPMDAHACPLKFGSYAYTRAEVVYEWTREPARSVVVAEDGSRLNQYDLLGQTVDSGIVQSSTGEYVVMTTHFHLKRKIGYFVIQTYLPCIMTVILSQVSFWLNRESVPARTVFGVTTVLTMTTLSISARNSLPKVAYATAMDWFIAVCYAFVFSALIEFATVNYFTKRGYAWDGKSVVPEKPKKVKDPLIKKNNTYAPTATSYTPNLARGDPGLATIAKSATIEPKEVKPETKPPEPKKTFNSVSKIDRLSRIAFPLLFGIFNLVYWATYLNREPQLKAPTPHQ
Sequence of Gamma-aminobutyric acid receptor subunit alpha-1/alpha-2/beta-2/gamma-2 (P47870 whole entry): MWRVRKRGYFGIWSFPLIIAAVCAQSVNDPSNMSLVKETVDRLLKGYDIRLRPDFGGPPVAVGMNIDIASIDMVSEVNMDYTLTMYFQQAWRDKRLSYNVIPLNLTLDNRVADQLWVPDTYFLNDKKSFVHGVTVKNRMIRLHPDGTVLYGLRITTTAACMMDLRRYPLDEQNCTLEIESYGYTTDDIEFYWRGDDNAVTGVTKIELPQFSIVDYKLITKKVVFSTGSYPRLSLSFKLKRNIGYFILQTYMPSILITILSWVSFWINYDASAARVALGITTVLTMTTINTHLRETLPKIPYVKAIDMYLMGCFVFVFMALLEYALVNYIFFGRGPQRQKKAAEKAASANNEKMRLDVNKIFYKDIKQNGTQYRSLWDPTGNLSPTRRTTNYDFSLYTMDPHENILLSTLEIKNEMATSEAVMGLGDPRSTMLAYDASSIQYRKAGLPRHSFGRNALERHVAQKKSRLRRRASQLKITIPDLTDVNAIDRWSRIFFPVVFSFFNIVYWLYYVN
Sequence of Gamma-aminobutyric acid receptor subunit alpha-1/alpha-2/beta-2/gamma-2 (P18507 whole entry): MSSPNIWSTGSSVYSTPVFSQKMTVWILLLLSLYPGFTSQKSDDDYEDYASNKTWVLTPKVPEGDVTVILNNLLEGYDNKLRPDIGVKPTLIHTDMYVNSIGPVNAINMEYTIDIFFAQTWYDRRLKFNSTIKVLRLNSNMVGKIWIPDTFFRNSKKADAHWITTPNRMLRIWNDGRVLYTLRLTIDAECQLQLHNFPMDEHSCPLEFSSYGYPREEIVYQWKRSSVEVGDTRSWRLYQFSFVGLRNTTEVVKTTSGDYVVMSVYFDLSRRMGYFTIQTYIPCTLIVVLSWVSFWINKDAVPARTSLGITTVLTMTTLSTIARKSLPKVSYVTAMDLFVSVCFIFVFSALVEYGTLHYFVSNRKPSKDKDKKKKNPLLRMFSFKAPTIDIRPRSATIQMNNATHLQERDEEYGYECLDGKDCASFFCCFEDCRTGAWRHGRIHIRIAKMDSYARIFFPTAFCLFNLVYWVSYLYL
Sequence of Gamma-aminobutyric acid receptor subunit alpha-1/alpha-2/beta-2/gamma-2 (P47869 whole entry): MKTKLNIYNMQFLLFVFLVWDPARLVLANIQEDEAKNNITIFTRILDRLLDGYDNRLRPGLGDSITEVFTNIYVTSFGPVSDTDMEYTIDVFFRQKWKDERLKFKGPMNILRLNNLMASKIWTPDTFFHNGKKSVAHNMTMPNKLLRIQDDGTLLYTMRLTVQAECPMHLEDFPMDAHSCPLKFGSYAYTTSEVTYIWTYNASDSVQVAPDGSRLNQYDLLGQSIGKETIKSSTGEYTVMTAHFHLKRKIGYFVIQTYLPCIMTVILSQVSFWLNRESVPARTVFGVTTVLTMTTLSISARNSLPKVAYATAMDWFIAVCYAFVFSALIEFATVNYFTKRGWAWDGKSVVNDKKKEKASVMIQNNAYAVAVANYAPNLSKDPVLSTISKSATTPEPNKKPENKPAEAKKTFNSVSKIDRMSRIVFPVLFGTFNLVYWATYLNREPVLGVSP
Sequence of Gamma-aminobutyric acid receptor subunit alpha-1 (P62813 whole entry): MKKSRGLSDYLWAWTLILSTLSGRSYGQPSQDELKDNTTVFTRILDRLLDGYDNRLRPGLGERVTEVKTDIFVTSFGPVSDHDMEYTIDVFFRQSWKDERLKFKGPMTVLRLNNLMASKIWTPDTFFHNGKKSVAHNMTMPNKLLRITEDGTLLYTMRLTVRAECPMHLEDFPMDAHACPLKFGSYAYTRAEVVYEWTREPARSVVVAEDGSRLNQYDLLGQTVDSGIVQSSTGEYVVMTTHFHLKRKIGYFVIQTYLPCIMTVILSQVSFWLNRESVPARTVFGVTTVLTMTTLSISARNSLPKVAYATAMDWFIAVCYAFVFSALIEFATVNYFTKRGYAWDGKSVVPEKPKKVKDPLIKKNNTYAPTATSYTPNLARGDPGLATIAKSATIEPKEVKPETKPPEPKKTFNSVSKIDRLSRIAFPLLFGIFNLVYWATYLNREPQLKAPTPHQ

SMILES | AC50 [1] [µM] | AC50 [2] [µM] | AC50 [3] [µM] | further results
COC(=O)c1ccc(O)cc1 [METHYLPARABEN] | > 30 |  |  | 
CC[C@@H]([C@H](C)O)n1ncn(-c2ccc(N3CCN(c4ccc(OC[C@@H]5CO[C@@](Cn6cncn6)(c6ccc(F)cc6F)C5)cc4)CC3)cc2)c1=O [POSACONAZOLE] |  | > 30 |  | 
CCOC(=O)N1CSC[C@H]1C(=O)O [TELMESTEINE] | > 30 |  | > 30 | 
Cc1ncc(COP(=O)(O)O)c(C=O)c1O [PYRIDOXAL PHOSPHATE ANHYDROUS] | > 30 |  | > 30 | 
Cc1c(N(C)CS(=O)(=O)O)c(=O)n(-c2ccccc2)n1C [METAMIZOLE] | > 30 |  |  | 
CCC(=O)O[C@]1(C(=O)CCl)[C@@H](C)C[C@H]2[C@@H]3C[C@H](F)C4=CC(=O)C=C[C@]4(C)[C@@]3(F)[C@@H](O)C[C@@]21C [HALOBETASOL PROPIONATE] | > 30 |  | > 30 | 
CC(C)N(CCNC(=O)CN1CCCC1=O)C(C)C | > 30 |  | > 30 | 
Cc1ccccc1N1CCN(CCc2nnc3n2CCCC3)CC1 [DAPIPRAZOLE] | > 30 |  |  | 
CN(C)CCOC(c1ccccc1)c1ccc(Br)cc1 (centres undefined) [BROMODIPHENHYDRAMINE] |  | > 30 | 0.207 | 
CC(C(=O)O)c1ccc(-c2ccccc2)c(F)c1 (centres undefined) [FLURBIPROFEN] |  | > 30 |  | 
CC(C)(C)NC[C@H](O)COc1cccc2c1CCCC2=O [LEVOBUNOLOL] | > 30 |  |  | 
CC(N)Cc1ccc(O)cc1 (centres undefined) [HYDROXYAMPHETAMINE] |  | > 30 | > 30 | 
NCC(CC(=O)O)c1ccccc1 (centres undefined) [PHENIBUT] |  | > 30 | > 30 | 
CC1=CCC(C(C)(C)O)CC1O (centres undefined) [SOBREROL] | > 30 |  | > 30 | 
CCCc1nc(C(C)(C)O)c(C(=O)O)n1Cc1ccc(-c2ccccc2-c2nnn[nH]2)cc1 [OLMESARTAN] | > 30 |  | > 30 | 
CC(=O)O[C@]1(C(C)=O)CC[C@H]2[C@@H]3C=C(Cl)C4=CC(=O)CC[C@]4(C)[C@H]3CC[C@@]21C [CHLORMADINONE ACETATE] |  | > 30 |  | 
COc1ccc(CN(CCN(C)C)c2ccccn2)cc1 [PYRILAMINE] |  | > 30 |  | 
CCN(CCCc1ccccc1)CCCc1ccccc1 [ALVERINE] | > 30 |  | 1.7 | 

SMILES | AC50 [1] [µM] | AC50 [2] [µM] | AC50 [3] [µM] | further results
CCCCC(=O)O[C@]1(C(=O)CO)[C@@H](C)C[C@H]2[C@@H]3CCC4=CC(=O)C=C[C@]4(C)[C@@]3(F)[C@@H](O)C[C@@]21C [BETAMETHASONE VALERATE] |  |  |  | AC50 (Progesterone receptor): 0.13 µM
CCN(CC)C(=S)S [DITIOCARB] |  | > 30 | > 30 | 
O=[N+]([O-])c1ccc(O)c2ncccc12 [NITROXOLINE] |  | > 30 | > 30 | 
Cc1cc(N)c2ccccc2[n+]1CCCCCCCCCC[n+]1c(C)cc(N)c2ccccc21 |  | 24.6 | 0.185 | 
C=CCSCC1Nc2cc(Cl)c(S(N)(=O)=O)cc2S(=O)(=O)N1 (centres undefined) [ALTHIAZIDE] |  | > 30 | > 30 | 
COc1cc2c(cc1OC)CC(=O)N(CCCN(C)C[C@H]1Cc3cc(OC)c(OC)cc31)CC2 [IVABRADINE] |  | > 30 | 11.9 | 
CNC1=Nc2ccc(Cl)cc2C(c2ccccc2)=[N+]([O-])C1 [CHLORDIAZEPOXIDE] |  |  |  | AC50 (Progesterone receptor): > 30 µM
C[C@H](Cc1cc2c(c(C(N)=O)c1)N(CCCO)CC2)NCCOc1ccccc1OCC(F)(F)F [SILODOSIN] | > 30 |  | > 30 | 
COc1cc(N2CCC(N3CCN(C)CC3)CC2)ccc1Nc1ncc(Cl)c(Nc2ccccc2P(C)(C)=O)n1 [BRIGATINIB] |  | > 30 | > 30 | 
CN1CCC(=C2c3ccccc3CCc3cccnc32)CC1 [AZATADINE] |  |  |  | AC50 (Progesterone receptor): > 30 µM
Cc1cc(NC(=O)C2=C(O)c3ccccc3S(=O)(=O)N2C)no1 [ISOXICAM] |  | > 30 | > 30 | 
c1ccc2c(c1)CCc1ccccc1N2C1CN2CCC1CC2 (centres undefined) [QUINUPRAMINE] | > 30 |  | 0.507 | 
CN1C(=O)/C(=N\NC(N)=S)c2ccccc21 [METHISAZONE] |  | 12.3 | > 30 | 
NC(=O)OCC(O)COc1ccc(Cl)cc1 (centres undefined) [CHLORPHENESIN CARBAMATE] |  | > 30 | > 30 | 
CCCC(CCC)C(N)=O [VALPROMIDE] |  |  |  | AC50 (Progesterone receptor): > 30 µM
CCOC(=O)[C@H](CCc1ccccc1)N[C@@H](C)C(=O)N(CC(=O)O)C1Cc2ccccc2C1 |  | > 30 | > 30 | 
CCC[C@H](NC(=O)[C@@H]1[C@H]2CCC[C@H]2CN1C(=O)[C@@H](NC(=O)[C@@H](NC(=O)c1cnccn1)C1CCCCC1)C(C)(C)C)C(=O)C(=O)NC1CC1 |  |  |  | AC50 [4]: > 10 µM; AC50 (Progesterone receptor): > 30 µM
C=C1CC[C@H](O)C/C1=C/C=C1\CCC[C@]2(C)[C@@H]([C@H](C)/C=C/[C@H](C)C(C)C)CC[C@@H]12 [ERGOCALCIFEROL] |  | > 30 |  | 
